Measured values from patent US11904051B2, “Shear stress sensitive liposomes” (Universität Basel, priority 2018, dated 2024).
Like-named read-outs stand apart in the source and are kept apart here.

Key:
[1] = Release experiments with 5(6)-carboxyfluorescein-loaded large unilamellar vesicles (LUVET100), spontaneous and vortex-triggered; type: physicochemical
Description: FIG. 8 Release experiments using 5(6)-carboxyfluorescein-loaded large unilamellar vesicles comprising 1,3-diheptadecanamidopropan-2-yl (2-(trimethylammonio) ethyl) phosphate (4) obtained via extrusion through a 100 nm track-edged filter membrane (LUVET100). Triggered release was induced by shaking the samples for a specific amount of time on a vortex-shaker.
Previously the inventors reported the 5(6)-carboxyfluorescein release from vesicles containing 1,3-palmitoylamido-1,3-deoxy-sn-glycero-2-phosphatidylcholine (2) (Holme et al., Nat. Nanotechnol. 2012, 7, 536-543). […] Increasing the Tm promises improved release properties. […] This leads to a lower leakage of the vesicles at 22° C. (room temperature) as well as 37° C. (average human body temperature) (FIG. 8). A prolongation if the acyl chain to the artificial C18 phospholipid 1,3-stearoylamido-1,3-deoxy-sn-glycero-2-phosphatidylcholine leads to an increased Tm of 52° C., but this phospholipid forms almost no liposomes anymore.
Each sample was treated with Triton X-100 to induce a full release of 5(6)-carboxy fluorescein.
Large unilamellar vesicles with a diameter of 100 nm (LUVET100) of the 1,3-diheptadecanamidopropan-2-yl (2-(trimethylammonio) ethyl) phosphate (4) were prepared following the extrusion protocol: in a 25 ml round bottom flask, 10 mg of the lipid was dissolved in CH2Cl2. After evaporation of the organic solvent, the film was further dried under high vacuum (40 mbar) overnight. Then the film was hydrated with the internal buffer for 30 min (1 ml, 50 mM 5(6)-carboxyfluorescein, 10 mM HEPES buffer (AppliChem), 10 mM NaCl dissolved in pure water, pH 7.4). Now at least 5 freeze-thaw cycles (liquid N2 to 65° C.) were carried out before the suspension was extruded 11 times using a Mini Extruder (Avanti Polar Lipids, USA) using track-edged filters with a mesh size of 100 nm (Whatman, USA). The external buffer was then exchanged on a size exclusion column (1.5×20 cm Sephadex G-50 column) in external buffer (107 mM NaCl dissolved in ultrapure water, 10 mM HEPES, pH 7.4).

[2] = Differential scanning calorimetry, main phase transition of vesicle membranes; type: physicochemical; conditions: main phase transition temperature of liposome membrane
Description: Interdigitation of membrane leaflets also influences the membranes main-phase transition temperature. […] Also, the value for the bilayer main-phase transition temperature is 11.5 K higher than the calculated critical temperature from the monolayer experiments, where no interdigitation is possible.

[3] = Dynamic light scattering of liposome formulations before and after SANS heating cycles; type: physicochemical; conditions: for PDI, After heating / Size (hydrodynamic), After heating: after the SANS experiments (n = 3); for Size (hydrodynamic), After heating: heating to 42° C. and back, eight months after; for PDI, Before heating / Size (hydrodynamic), Before heating: before the SANS experiments (n = 5); for Size (hydrodynamic), Before heating: room temperature, D2O; for DLS larger population size: bimodal size distribution
Procedure: A library of artificial phospholipids was synthesised. Table 5 summarises the characterisation of the liposomal formulations concerning hydrodynamic size and polydispersity, before and after the temperature-dependent SANS measurements. The size of the DPPC and Pad-PC-Pad liposomes was (120±2) nm with a polydispersity index between 0.01 and 0.20. […] Pad-Pad-PC and Sur-PC-Sur liposomes were 400 to 1,500 nm in size with a polydispersity index of 0.57.
DLS measurements were carried out on a DelsaMax PRO (Beckman Coulter, USA) at room temperature and at a lipid concentration of 0.3 mg/mL in D2O. The data were averaged among five independent measurements before heating cycles and three measurements eight months after applying heating cycles. Data were treated with the cumulant analysis method.

[4] = Small-angle neutron scattering (SANS) of liposomes as a function of temperature; type: physicochemical
Description: In order to determine the structural parameters, including the bilayer thickness of the selected liposomal formulations, a suitable model for data fitting has to be identified. […] The structure factor was fitted using the sticky hard sphere model (Baxter et al., The Journal of Chemical Physics 1968, 49 (6), 2770-2774; Mays, Langmuir 1989, 5, 422-428). In order to adjust the form factor to the overall shape of the liposomes, an ellipsoidal shell model with a homogeneous cross-section (Guinier, Annales de Physique, 1939; pp 161-237) was applied. The elliptical shell model is defined by three orthogonal axes with lengths a=R, b=R and c=εR, along with eccentricity ε>0, (ε<1: oblate, ε=1: spherical, ε>1: prolate). The model also accounts for variations in bilayer thickness and liposome size. As the scattering data of the Pad-PC-Pad liposomes at the temperature of 35° C. could not be approximated satisfactorily by means of the ellipsoidal shell, the inventors included disks with a homogeneous cross-section—an approach motivated by the cryo-TEM results. Together with the experimental data of the Pad-PC-Pad liposomes at three selected temperatures, the obtained fits are represented in FIG. 23.
The inventors recognised that the inhomogeneity of the liposomal formulations, except for Pad-PC-Pad, concerning the shape and size of the artificial lipids in this study only allows for the reasonable fitting of the q-range, which corresponds to bilayer thickness. For this purpose, the inventors applied an extended Guinier law (Hjelm et al., The Journal of Physical Chemistry B 2000, 104 (2), 197-211; Fratzl, Journal of Statistical Physics 1994, 77 (1-2), 125-143), which yields the thickness of the bilayer. To account for possible multi-lamellarity, the inventors included a para-crystalline stacking model (Schwartz et al., Biophysical journal 1975, 15 (12), 1201-1233; FruÈhwirth et al., Journal of Applied Crystallography 2004, 37 (5), 703-710) as a structure factor.
SANS measurements were performed at the SANS-I beamline at the Swiss Spallation Neutron Source SINQ facility (Paul Scherrer Institute, Villigen, Switzerland). The samples were loaded into 2 mm-path length, boron-free quartz glass cells and mounted in a temperature-controlled holder. This system allows for controlling the temperature of the specimen with an accuracy better than 1 K. The liposomal suspensions were measured between 22 and 42° C. in 3 to 4 K steps. Subsequently, the suspensions were cooled down to room temperature (22° C.) and measured again. Three detector distances, i.e. 1.6, 6.0 and 18.0 m, were used to collect data over the range of scattering vectors 0.01 nm^−1<q<10 nm^−1 at the neutron wavelengths (A) […]. Data were collected with a two-dimensional ^3He-detector with an array of 128×128 pixels and reduced to one-dimensional I(q) scattering curves, thus radially averaging the two-dimensional images. The data were corrected for transmission, background scattering and detector efficiency according to a standard procedure using the BerSANS software package (Keiderling, Applied Physics A 2002, 74 (1), s1455-s1457; Strunz et al., Journal of Applied Crystallography 2000, 33 (3 Part 1), 829-833).
The SANS data were analysed using SASfit software (Breßler et al., Journal of Applied Crystallography 2015, 48 (5), 1587-1598) and corresponding models. A Pad-PC-Pad sample was fitted over the entire measured q-range, whereas we restricted the fit for the other samples to the q-range, which corresponds to lipid bilayer thickness. For Pad-PC-Pad, the inventors used an ellipsoidal shell model with a homogeneous cross-section (Guinier, Annales de Physique, 1939; pp 161-237) and size distributions in terms of both thickness and radius. […]

[5] = reported previously, cited from earlier work
[6] = 22 ° C. (after cooling down to room temperature)

| DLS most probable / dominant or smaller population size [3] | PDI, After heating [3] | Size (hydrodynamic), After heating [3] | PDI, Before heating [3] | most probable bilayer thickness ([4]; 22 ° C.) | most probable bilayer thickness [4, 6] | most probable bilayer thickness ([4]; 25 ° C.) | most probable bilayer thickness ([4]; 28 ° C.) | most probable bilayer thickness ([4]; 32 ° C.) | most probable bilayer thickness ([4]; 35 ° C.) | most probable bilayer thickness ([4]; 39 ° C.) | most probable bilayer thickness ([4]; 42 ° C.) | DLS larger population size [3] | Structure (SMILES) | Tm, main phase transition temperature [5] | also measured |
| --- | --- | --- | --- | --- | --- | --- | --- | --- | --- | --- | --- | --- | --- | --- | --- |
| 160 nm | 0.20 ± 0.02 | 220 ± 10 nm | 0.23 ± 0.01 | 3.15 nm | 3.01 nm | 3.51 nm | 3.51 nm | 3.49 nm | 3.46 nm | 3.38 nm | 3.33 nm |  | CCCCCCCCCCCCCCCCCC(=O)NCC(CNC(=O)CCCCCCCCCCCCCCCCC)OP(=O)([O-])OCC[N+](C)(C)C [Sad-PC-Sad, 1,3-distearamidopropan-2-phosphocholine] | 52 °C | Release at 37° C. after 2 h ([1]; 37° C., 2 h): 9.1%; Release at RT after 60 s vortex ([1]; mechanically induced release, 22° C. (RT), 60 s vortexing): 8.32%; Release 37° C. after 60 s vortex ([1]; mechanically induced release, 37° C., 60 s vortexing): 40.2%; Release at RT after 6 days ([1]; spontaneous release, RT, (6 days)): 8.4%; Tm [2]: 52 °C; Size (hydrodynamic), Before heating ([3]; listed as Sad-PC-Sad (6)): 160 ± 3 nm; bilayer thickness variations ([4]; 22 to 42° C.): ≤ 10% |
| about 150 nm |  |  | 0.57 | 5.57 nm | 5.67 nm | 5.55 nm | 5.55 nm | 5.52 nm | 5.54 nm | 5.58 nm | 5.57 nm | ~3 μm | CCCCCCCCCCCCCCCC(=O)NC[C@H](COP(=O)([O-])OCC[N+](C)(C)C)NC(=O)CCCCCCCCCCCCCCC [Pad-Pad-PC] | 46 °C | Size (hydrodynamic), Before heating ([3]; listed as Pad-Pad-PC (2)): 1500 ± 30 nm; PDI, Before heating ([3]; listed as Pad-Pad-PC (2)): 0.57 ± 0.01; Tm, main phase transition temperature ([5]; listed as Pad-Pad-PC (2)): 40-47 °C |
| about 100 nm | 0.92 ± 0.08 | 3100 ± 200 nm | 0.57 ± 0.01 | 3.9 nm | 4.82 nm | 4.17 nm | 4.46 nm | 4.42 nm | 4.6 nm | 4.68 nm | 4.58 nm | ~1 μm | CCCCCCCCCCCCCCCC(=O)OCC(COC(=O)CCCCCCCCCCCCCCC)OP(=O)([O-])OCC[N+](C)(C)C [Pes-PC-Pes] | 39 °C | Size (hydrodynamic), Before heating ([3]; listed as Pes-PC-Pes (3)): 170 ± 20 nm; increase in bilayer thickness at phase transition ([4]; present study): 18%; increase in bilayer thickness after the heating cycle ([4]; temperature cycle to 42° C. including cooling to room temperature): 24% |
